Measured values published in patent US10653822B2, “Drug delivery devices and methods of making and using same” (The Administrators of the Tulane Educational Fund, priority 2012, dated 2020).
Where two headings read alike, the source gives them in different places. One block for each molecule: values may come before it.

Experiments:
[1] = cited from earlier work
COS-1 cells [2] = assay: Cytotoxicity of drug released into culture medium over timed intervals
[3] = In vitro release of 5-FU from double-layered breath figure PLGA films in PBS; format: physicochemical
Experimental: IN VITRO RELEASE CHARACTERISTICS OF DOUBLE-LAYERED 5-FU-PLGA FILM. […] At specific time intervals, a 1 ml aliquot of the solution was withdrawn and 1 ml of fresh PBS was added to the vial to maintain constant volume. The pH of the medium was monitored during the course of the experiment to verify that the solution was buffered adequately during polymer degradation. Each aliquot was centrifuged to remove any possible debris from the degraded polymer components that could interfere with the absorbance readings and drug release was quantified through the absorbance measured at 266 nm. A standard calibration plot of 5-FU absorbance was constructed to correlate absorbance with drug release levels. All experiments were conducted with triplicate polymer samples.

LN-229 cells [4] = system: LN-229 cells
Source text: (§1) HIGH PERFORMANCE LIQUID CHROMATOGRAPHY. […] DAD wavelength was set to 285 nm.
HPLC parameters are given in the materials and methods section and in the legend to FIG. 39. Data represent average values from 2 experiments in triplicate (n=6)±SD (SD values for some points are too small to be visible). […] To test this alternative interpretation, we collected conditioned medium from the LN-229 cells cultured for 72 hrs.

[5] = system: blood-brain barrier (BBB) in vitro model; conditions: coculture with inserts; cited from earlier work
LN-229 cells [6] = assay: Subcellular distribution of FF and FA in LN-229 membrane and cytosolic fractions (HPLC); conditions: per 10^6 LN-229 cells, 25 μM fenofibrate, 24 hrs
Experimental: (§2) Blood plasma, cell culture media, cellular and tissue lysates, were deproteinized by adding 150 μl of acetonitrile to 150 μl of sample, mixed well and centrifuged (15 000 g, 5 min). […] For the subcellular fractionation, subconfluent monolayer cultures were washed in phosphate buffered saline (PBS) twice, then cells were scraped and lysed in 2% sodium dodecyl sulphate (SDS) in PBS. The lysates were sonicated on ice and centrifuged (15 000 g, 5 min). Finally, 150 μl of the supernatant was mixed with the equal volume of acetonitrile, filtered through 0.22 μm centrifuge filter (Sigma) and analyzed by High Performance Liquid Chromatography (HPLC).
(§3) All data were obtained from the Agilent Technologies 1100 apparatus equipped with a line degasser, binary pump (high pressure mixer), autosampler, column thermostat and Diode Array Detector (DAD). The YMCBase, 3 μm 4.6×150 mm analytical column was used and solvent A—50 mM acetic acid in water or solvent B—acetonitrile, with isocratic flow 60%. Flow rate was set to 1 ml/min, column temperature was 20° C., and 5 μl of 0.22 μm filtered sample was injected. DAD wavelength was set to 285 nm.
(§4) Data represent average values from three separate measurements with standard deviation.

[7] = Tissue distribution of FF and FA after oral fenofibrate in mice (HPLC); format: in vivo; conditions: for concentration at 4 weeks: Balb c/nude, mouse, oral, 50 mg/kg/day
Experimental: ANIMAL STUDIES. […] according to the standard ethically accepted procedure, and the following organs/body fluids were collected: blood, urine, liver, kidneys, spleen, heart, lungs, intact brain and intracranial tumor tissue.
as §1
For body fluids concentrations are calculated per ml of the body fluid, and in solid tissues per mg of the tissue.

LN-229 cells [8] = conditions: human, 24 h, 25 µM
Experimental: as §2, §3, §4

[9] = 120 h
[10] = HPLC detection of FF to FA conversion in human blood; format: in vitro ADME; conditions: 50 μM FF in human blood, 4 hours, 37° C.
Source text: as §1

LN-229 cells [11] = assay: Clonogenic assay; format: cell-based, human; conditions: 12 days; drugs at 50 μM or wafer with 1 mg fenofibrate
Experimental: CHLONOGENIC ASSAY. […] Control cells were treated with the vehicle (DMSO). […] All the conditions were tested in duplicate and each experiment was performed at least three times.

COS-1 cells [12] = assay: COS-1 proliferation with MMC-loaded PLGA films, 5-day culture, toluidine blue; format: cell-based; conditions: MMC incorporated into the bulk PLGA film
Experimental: CELL CULTURE AND RELEASE STUDY. For the dose response study, control samples (no drug) and MMC-containing samples were loaded into sterile 12-well plates. […] COS-1 cells (10^4 cells) were added to each well and the cells were incubated at 37° C. in a humidified 5% CO2-95% air atmosphere. The culture medium was replenished on day 3 and day 5 after the cells were plated. After 5 days of culture, the cell accumulation in each culture dish was assessed. The culture medium was removed and the cell layer was gently washed 3 times with 5 mL of phosphate-buffered saline (PBS). […] The amount of dye in each well was measured by the absorbance at 650 nm, which is equivalent to the number of cells, using UV-Visible spectrophotometer (Model UB-1601, Shimadzu scientific instruments Inc, Houston, Tex.).
For the preliminary dose-response study, COS-1 cells (10^4 cells in 1 mL) were added to each well of a 12-well plate. […] After 5 days of culture, the cell accumulation in each culture dish was assessed by a modification of a previously described procedure (Leavesley D I, Ferguson G D, Wayner E A, et al. Requirement of the integrin beta 3 subunit for carcinoma cell spreading or migration on vitronectin and fibrinogen. J Cell Biol. 1992; 117:1101-1107.) Briefly, culture medium was removed and the cell layer was gently washed 2 times with 2 mL of phosphate-buffered saline (PBS). […]

[13] = Stability of MMC in PBS and after spin-casting in PLGA-dichloromethane; format: physicochemical
[14] = In vitro release of MMC from surface-loaded PLGA films into PBS; format: physicochemical; conditions: films loaded with 1 and 5 μg MMC, absorbance at 364 nm
Experimental: Aliquots (0.65 mL) of the PBS were removed at specific time intervals after immersion of the polymer samples, and absorbance was measured at 364 nm using a UV spectrophotometer (Shimadzu UV-1700 series). After measurement, the aliquots were returned to the vials to maintain constant volume and sink conditions.

[15] = In vitro release of model drugs (salicylic acid, ibuprofen) from breath figure and non-porous PLGA and PEG/PLGA films in PBS; format: physicochemical; conditions: PBS 37° C.
Experimental: Ibuprofen and Salicylic acid were used as model drugs to characterize the release profiles of breath figure polymer films. The equivalent non-porous smooth films were used as controls. In vitro release studies were carried out by incubating 1.5 cm side square drug incorporated films in 15 ml of PBS medium at 37° C. and stirred gently using a magnetic stirrer. At specific time intervals, 0.650 ml aliquots of the solution was withdrawn and centrifuged to remove any possible debris from the degrading polymer. Then, the aliquot was returned to the vial after measuring the absorbance to quantify drug release. The pH of the medium was monitored during the course of the experiment to verify that the solution is buffered adequately during polymer degradation. Ibuprofen and salicylic acid release were quantified through the absorbance at 221 and 296 nm, respectively. Standard calibration plots of ibuprofen and salicylic acid absorbance were constructed to correlate absorbance with drug release levels. All experiments were conducted in triplicate.
The release profile of breath figure PLGA and PEG/PLGA films was carried out in PBS medium (pH 7.4, 0.1M), incubated at 37° C. A non-porous film with the equivalent amount of drug dispersed was used as control. […] FIG. 14 illustrates the cumulative release of salicylic acid from the PLGA film and PEG/PLGA film, respectively, for a period of 2 days. […]

[16] = blood, read-out: concentration in Blood
[17] = urine, read-out: concentration in Urine
[18] = mice, micronized fenofibrate 50 mg/kg/day oral, n = 4
[19] = mice, micronized fenofibrate 50 mg/kg/day oral, n = 6

SMILES: Cc1ccc(C)c(OCCCC(C)(C)C(=O)O)c1 [Gemfibrozil, gemfibrozil]
- inhibition of clonal growth of LN-229 cells (LN-229 cells [11]): not able to reproduce them

SMILES: CO[C@@]12[C@H](COC(N)=O)C3=C(C(=O)C(C)=C(N)C3=O)N1C[C@@H]1N[C@@H]12 [MMC, mitomycin C]
- toxic effect of degraded products on COS-1 cells (COS-1 cells [12]): no toxic effect
- loss of activity in PBS at 23 degrees C. ([13]; 50 day incubation, 23 degrees C.): approximately 15%
- loss of activity in PBS at 37 degrees C. ([13]; 50 day incubation, 37 degrees C.): ~50%
- activity in PBS at 4 degrees C. ([13]; 50 days, 4 degrees C.): retained its activity
- loss of activity after dissolving in PLGA-dichloromethane and spin-casting ([13]; spin-cast PLGA film): 100%
- active drug released from the film [14]: 20-40%

SMILES: Cc1cccc(Nc2cc(Cl)nc(SCC(=O)O)n2)c1C [Wy-14,643]
- inhibition of clonal growth of LN-229 cells (LN-229 cells [11]): not able to reproduce them

SMILES: O=C(O)c1ccccc1O [salicylic acid]
- water solubility [1]: > 2000 µg/mL

Continued, in another order:

- continuous release of drug after the lag phase [3]: 21 days
- duration of sharp increase in drug release after the delay [3]: 10 days
- lag period after the sharp release phase [3]: 2 to 3 days
- delay of the initial release by sealing ([3]; sealed top layer): 3 to 5 days
- burst effect in the first 24 hours of incubation ([3]; sealed top layer, 0.1, 0.4, 2 mg 5-FU): no burst effect
SMILES: O=c1[nH]cc(F)c(=O)[nH]1 [5-FU, 5-fluorouracil]
- water solubility (in words) [1]: highly water soluble
- killing efficiency (percent of cells killed vs PLGA film without drug) (COS-1 cells [2]; double-layered film with 0.1 mg 5-FU, samples from >15 days of incubation): about 75%
- total incubation with culture medium until maximum cytotoxicity (COS-1 cells [2]; double-layered film with 0.4 mg 5-FU): 4 to 5 days

- FA detected after FF incubation in filtered conditioned medium (LN-229 cells [4]): did not detect any traces
- amount in cytosolic fraction (LN-229 cells [6]): 0.57 nmol
- concentration at 4 weeks [7, 16]: 3.33 µM
- concentration at 4 weeks [7, 17]: 5.34 µM
- concentration in Intracranial tumor ([7]; mice with intracranial LN-229, micronized fenofibrate 50 mg/kg/day oral, n = 6): 0 nmol/mg
- concentration in Heart [7, 18]: 1.31 ± 1.4 nmol/mg
- concentration in Spleen [7, 18]: 1.33 ± 1.1 nmol/mg
- concentration in Brain ([7]; mice, micronized fenofibrate 50 mg/kg/day oral, n = 5): 0.06 ± 0.1 nmol/mg
- concentration in Kidneys [7, 19]: 1.5 ± 0.8 nmol/mg
- concentration in Liver [7, 19]: 11.35 ± 3.9 nmol/mg
- concentration in Lungs [7, 19]: 0.36 ± 04 nmol/mg
SMILES: CC(C)(Oc1ccc(C(=O)c2ccc(Cl)cc2)cc1)C(=O)O [FA, fenofibric acid]
- BBB permeability coefficient [5]: 11.3 ×10⁻⁶ cm/s

- amount in cytosolic fraction (LN-229 cells [8]): 2.40 nmol
- time of maximal intracellular concentration (LN-229 cells [4]; human, 50 µM): 24 h
- stability in culture medium [9]: at least 120 h
- decrease of FF peak in human blood [10]: about 5 fold
- concentration at 4 weeks [7, 16]: 0 µM
- concentration at 4 weeks [7, 17]: 0 µM
SMILES: CC(C)OC(=O)C(C)(C)Oc1ccc(C(=O)c2ccc(Cl)cc2)cc1 [FF, fenofibrate]

- duration of release from films [15]: at least 14 days
SMILES: CC(C)Cc1ccc(C(C)C(=O)O)cc1 (stereo not shown) [ibuprofen]
- water solubility [1]: < 500 µg/mL
